# Experimental data taken from a melting point compilation (Tetko et al.; mined from patent text by program, amines drawn as free bases though some values may be those of a salt).
row,SMILES,melting point [°C]
1,CC(C)N(CCC(CCN1CCCCC1)(C(N)=O)c1ccccc1Cl)Cc1ccccc1 (stereo not given),104 to 111
2,CN(C)c1ccc2nc(N)c(C#N)c(NCc3cccs3)c2c1,211
3,CC(C)C(NC(=O)OCCN1CCOCC1)C(=O)NC(Cc1ccccc1)C(O)C(Cc1ccccc1)NC(=O)C(NC(=O)OCc1ccccc1)C(C)C (stereo not given),159 to 161
4,CCNc1ccc(NCCO)cc1[N+](=O)[O-],106
5,Cc1c(Cl)sn(-c2ccccc2)c1=O,60 to 68
6,CC(=O)Oc1nc(-c2ccccc2)sc1-c1ccccc1,101 to 103
7,CC1(C)CC(OC(=O)CCCCCCCCC(=O)OC2CC(C)(C)N(OC(=O)c3ccccc3)C(C)(C)C2)CC(C)(C)N1OC(=O)c1ccccc1,92 to 100
8,CN1CCC(C(O)(c2ccn(C)c2)c2ncc[nH]2)CC1 (stereo not given),171
9,COc1cc(Br)c(-n2c(=O)[nH]c3c(-c4ccccc4C(F)(F)F)nc(C)nc32)c(OC)c1,255 to 256
10,Cc1ccc(-c2c(NS(=O)(=O)c3ccc(C(C)(C)C)cc3)ncnc2OCCOc2ccc(NC(=O)c3ccccc3)cn2)cc1,173 to 174
11,O=C(O)C1C(=O)c2cc(F)ccc2N=C1c1ccccc1 (stereo not given),297
12,CC(C)c1ccc2nc(Cl)cn2n1,69 to 71
13,COc1ccc(-c2ccc(-c3ccccc3Cl)n2Cc2cccc(N)n2)cc1,147 to 148
14,O=[N+]([O-])c1ccc(N2CCC2)nc1,132 to 134
15,COc1cc(C(C)=O)ccc1OC/C=C\CCl,64 to 66
16,O=C(O)c1csc(-c2cccc(Cn3cc(C4c5ccccc5C=Cc5ccccc54)c(=S)[nH]c3=O)c2)n1,165
17,O=C(c1cccnn1)c1ccccc1Cl,105 to 107
18,O=C(Nc1cccc(S(=O)(=O)NCCO)c1)c1cnn2c(C(F)F)cc(-c3ccc(C(F)(F)F)cc3)nc12,231
19,CCn1c2ccccc2c2cc(I)ccc21,78 to 80
20,CS(=O)(=O)c1nc(Cl)c(-c2c(F)cc(F)cc2F)c(N2CCCO2)n1,210 to 219
21,O=C1c2cccc3cc4ccccc4c(c23)C(=O)N1CCCNCCCN1C(=O)c2cccc3cc4ccccc4c(c23)C1=O,184
22,O=C(O)COc1ccc(SCc2cc(-c3ccccc3Cl)on2)c2c1CCC2,161 to 162
23,Cc1cccc(C)c1NC(=O)CN1CCN(C=O)CC1,139 to 140
24,COc1cc(C(O)C(CO)[N+](=O)[O-])cc(OC)c1OC (stereo not given),155 to 159
25,CCOC(=O)c1ccc(-c2cc3c(NCc4ccc(OC)nc4)ncnc3[nH]2)cc1,305

row,SMILES,melting point [°C]
1,Fc1cc(N2CCN(CCc3coc4ccc(F)cc34)CC2)c2ncccc2c1,55
2,CCCOc1cc2ccccc2c2c(=O)c(-c3ccoc3)cn(C)c12,165 to 167
3,CCCc1nn(C)c2c(=O)[nH]c(-c3cc(C(=O)N4CCN(C)CC4)ccc3OCC)nc12,196 to 197
4,O=S(=O)(Oc1ccc(S(=O)(=O)c2ccc(OS(=O)(=O)c3ccccc3)cc2)cc1)c1ccccc1,133 to 134
5,COC(=O)c1nc(CCl)n(-c2ccc(Cl)cc2C(=O)c2ccccc2)n1,132 to 134
6,O=C(O)Cc1nc(-c2c(Cl)cccc2Cl)no1,124 to 126
7,C=CCN1C(=O)NC(C)CC1OCC (stereo not given),72 to 76
8,CCCCCCCCCc1ccc(O)c(C=NO)c1,170
9,CC(C)=CC(=O)N[C@H]1CC[C@H](CCN2CCN(c3nccc4c3CCO4)CC2)CC1,164
10,Cc1ccc(N(Cc2ccc(N(C)C)cc2)C(=O)Nc2c(C(C)C)cccc2C(C)C)c(C)c1,100
11,COc1ccc(C2(CF)CCC(=O)CC2)cc1OC1CCCC1,72 to 74
12,CN1CCC(c2ccc(Nc3cc(-c4cccc(-n5ncc6cc(C(C)(C)C)cc(F)c6c5=O)c4CO)nn(C)c3=O)nn2)CC1,260 to 265
13,ClC(Cl)(Cl)c1cc(-c2ccccc2)c2ccc3c(-c4ccccc4)cc(C(Cl)(Cl)Cl)nc3c2n1,180 to 184
14,C=CCNC(=Nc1ccc(-c2c[nH]cn2)cc1)S(=O)(=O)O,183 to 184
15,CCCCC1NC(C(=O)O)Cc2c1[nH]c1ccccc21 (stereo not given),204 to 205
16,Nc1nc(-c2cc(Cl)ccc2Cl)nc(N2C[C@H](O)C[C@H]2CO)n1,171 to 173
17,Nc1[nH]ncc1-c1nc(-c2ccco2)n[nH]1,175 to 176
18,Cn1c(-c2ccccc2S(C)=O)nc2ccccc21 (stereo not given),157 to 159
19,CCC1(CC)C(=O)Nc2ccccc21,156 to 159
20,O=C(c1cc2ccccc2s1)C1CCN(CCc2ccccc2)CC1,129 to 130
21,COc1ccc(-c2c(C)nc(N)nc2C2CCN(C(=O)c3ccccc3)CC2)cc1,226 to 227
22,CC(C)NCCCOc1ccc(O)cc1,92 to 100
23,Nc1nc(C2CCN(C(=O)Cc3ccc(O)c(O)c3)CC2)c2ccccc2n1,250 to 253
24,Fc1ccc(Nc2ncnc3cnc(NCc4ccccn4)nc23)cc1Cl,220 to 222
25,Cc1ccc(N2C(=O)C(O)=C(C(=O)c3ccc(C(C)C)cc3)C2c2ccc(Cl)cc2)nn1 (stereo not given),258 to 260

row,SMILES,melting point [°C]
1,CSc1c[nH]c2cccc([N+](=O)[O-])c12,123 to 124
2,COC(=O)CCc1ccc(-n2ncn(-c3ccc(C#N)cc3)c2=O)cc1,213 to 215
3,C=C1c2ccccc2CC(=NO)Cc2ccccc21,119 to 123
4,CCOC(=O)C1=Cc2cc(Cl)c(Oc3ccc(OC)cc3)cc2OC1C(F)(F)F (stereo not given),116 to 117
5,CN(C)Cc1cccc(OCCCNC(=O)COC(=O)c2ccc(Cl)c(Cl)c2)c1,48 to 50
6,COC(=O)CCCc1cc2nc(Cl)ccc2n1S(=O)(=O)c1ccc(F)c([N+](=O)[O-])c1,129 to 131
7,COc1cccc(OC)c1N(COC(C)C)C(=O)CCl,85 to 90
8,CC(C)NC(=C1Sc2ccccc2C1=O)c1ccccc1,112 to 113
9,O=Cc1cc(Br)cnc1N1CCC(CO)C1 (stereo not given),84 to 85.5
10,NCC1CN(c2cc(F)c(-c3cccnc3)c(F)c2)C(=O)O1 (stereo not given),143 to 145
11,CN(C)NC(=O)c1nc([N+](=O)[O-])cn1C,154
12,CCOC(=O)N1CCC(NC(=O)c2ccc(Cl)c(Cl)c2)C12CCCCC2 (stereo not given),153 to 155
13,O=C(O)c1ccc(-n2c(SCc3ccc(Cl)cc3)nc3ccc(Cl)cc32)cc1,265 to 266
14,COc1ccccc1OCC1SCCN1C(=O)CI (stereo not given),81 to 83
15,CCOC(=O)C1(CC(=O)O)C(=O)N(Cc2ccc(Br)cc2F)C(=O)c2cccn21 (stereo not given),142 to 144
16,Clc1ccc2c3c(cccc13)C(NCCCn1ccnc1)=N2,177 to 178
17,CN(C)C=C(C#N)C(=O)c1cccc(Oc2ccccc2)c1,80 to 82
18,CCOC(=O)C(=O)Nc1cc2c3c(cccc3c1[N+](=O)[O-])C(=O)OC2=O,221 to 222
19,COc1ccc(-c2nc(N)sc2-c2ccnc(N)c2)cc1,251 to 254
20,Cc1cc(C)nc(N2CC=C(N)N2)n1,205
21,N#Cc1c(O)ccc2ccccc12,160 to 161
22,Nc1ccc(C2CCN(c3ccncc3)CC2)cc1,196 to 197
23,CCN1C(=O)CON(C(C)=O)C1c1ccccc1 (stereo not given),130 to 132
24,CCOC(=O)/C=C(C)/C(F)=C/C=C(C)/C=C/c1c(C)cc(OC)c(C)c1Cl,115 to 117
25,Cc1ccnc(NC(=O)C2=C(O)c3ccc4ccccc4c3S(=O)(=O)N2C)c1,221

row,SMILES,melting point [°C]
1,Cc1ccc2c(c1)c(=O)c(S(C)=O)nn2C (stereo not given),173 to 175
2,Nc1nc2ccccc2n[n+]1[O-],266 to 268
3,Cc1nc(C(N)=O)n(-c2ccc(Cl)c(Cl)c2)c1Cl,144 to 145
4,Cc1cc(OC(C)c2ccccc2)ccc1C(C)N(O)C(N)=O (stereo not given),157 to 158
5,O=C1Cc2cccc(Oc3ccccc3Cl)c2O1,118 to 120
6,CCn1c(C)c(C2(c3c(-c4ccc(OC)cc4)nc4sccn34)OC(=O)c3cccnc32)c2ccccc21 (stereo not given),115 to 118
7,COC(=O)C1=Cc2cc(Br)ccc2S(=O)(=O)CC1,162 to 164
8,O=C1NC(=NC2CCCC2)C(c2ccc3[nH]ccc3c2)N1c1ccc2[nH]cnc2c1 (stereo not given),210
9,COc1ccc(C(=O)[C@H](C)NC(=O)OCc2ccccc2)cc1,46 to 48
10,OC1(c2ccncc2)Cc2ccccc2C2=NCCN21 (stereo not given),162 to 164
11,CCN(CC)C(=O)Nc1ccc(S(=O)(=O)N2C(=O)C(NCCCCCNC(C)=O)(c3ccccc3Cl)c3cc(Cl)ccc32)cc1 (stereo not given),195 to 198
12,CC(CCCc1ccc(F)cc1)c1cc(NC(N)=O)c2c(c1)OC(C)(C)c1ccncc1-2 (stereo not given),179 to 181
13,N#Cc1ccc(-c2c[nH]nc2C(F)(F)F)cc1SCC1CCC1,102 to 103
14,COc1cc(CCC(=O)CC(=O)c2ccc(-c3ccccc3)cc2)ccc1O,118 to 119
15,CCCCCCCCCCCCCCCCC1CC(Cn2cncn2)(c2ccc(Cl)cc2)N(C)O1 (stereo not given),100 to 102
16,[N-]=[N+]=C1c2cc(F)ccc2-c2ccc(F)cc21,148 to 150
17,O=c1oc2ccccc2n1Sc1ccc(Cl)cc1,134 to 137
18,Cc1nnc(-c2ccc3occ(-c4cc(Cl)ccc4Cl)c3c2)o1,185 to 186
19,N#Cc1ccc(C2CC(=O)N(CC3CC3)Cc3cncn32)cc1 (stereo not given),178 to 180
20,O=C1Nc2ccccc2C1CCCCN1CCN(c2ccc(Cl)c(Cl)c2)CC1 (stereo not given),112 to 114
21,O=[N+]([O-])C=C1NCCN1Cc1ccc(F)nc1,139 to 142
22,COCCNC(=O)c1ccc(C)c(-n2c(C)cc(OCc3ccccc3CNC(=O)Nc3cc(C(C)(C)C)nn3-c3ccc(Cl)c(O)c3)c(Cl)c2=O)c1,182 to 183
23,CCOC(=O)c1cn(CCO)c2cc(-n3cccc3)c(F)cc2c1=O,237 to 239
24,N#CCCCCC(N)=O,63 to 65
25,Nc1nc(SC(c2ccccc2)c2ccccc2)c2[nH]cnc2n1,226 to 227
